Consider 15 compounds from ChEMBL document CHEMBL4673231, “Novel isoniazid embedded triazole derivatives: Synthesis, antitubercular and antimicrobial activity evaluation” (Bioorg Med Chem Lett, 2020).

For data set [1], the system named is Mycobacterium tuberculosis. The experiment in a line: Antimycobacterial activity against Mycobacterium tuberculosis H37Rv assessed as reduction in microbial growth incubated for 7 days by alamar blue assay. Particulars: 168 h, time 7 day. It is filed as functional. On the technique in general: The colour change of resazurin is a common sign of viable cells or microbes.

Data set [2] has as its system Salmonella enterica subsp. enterica serovar Abony. As to the kind of experiment: Antibacterial activity against Salmonella enterica subsp. enterica serovar Abony assessed as diameter of inhibition zone at 1 mg/ml incubated for 24 hrs by agar well diffusion assay. The data set is classed as functional. Background: In agar diffusion tests the substance spreads into inoculated agar from a disc or well.

For data set [3], the system named is Bacillus subtilis. As to the kind of experiment: Antibacterial activity against Bacillus subtilis assessed as diameter of inhibition zone at 1 mg/ml incubated for 24 hrs by agar well diffusion assay. The data set is classed as functional. Particulars: for zone of inhibition at 1000 µg/mL: read-out: DIZ.
Data set [4] relates to Saccharomyces cerevisiae. The experiment in a line: Antifungal activity against Saccharomyces cerevisiae assessed as diameter of inhibition zone at 1 mg/ml incubated for 24 hrs by agar well diffusion assay. The data set is classed as functional. Particulars: for zone of inhibition at 1000 µg/mL: read-out: DIZ.
Data set [5] in a line: Cytotoxicity against mouse RAW264.7 cells assessed as reduction in cell viability at 25 ug/ml incubated for 48 hrs by MTT assay. The data set is classed as cell-based. Particulars: at 25 µg/mL, read-out: INH. For orientation: Tetrazolium assays rely on reduction of a dye to a coloured formazan, in cell work by metabolically active cells.
The test system of data set [6] is Klebsiella aerogenes. As to the kind of experiment: Antibacterial activity against Enterobacter aerogenes assessed as diameter of inhibition zone at 1 mg/ml incubated for 24 hrs by agar well diffusion assay. The data set is classed as functional. The note with it: for zone of inhibition at 1000 µg/mL: read-out: DIZ.
The subject of data set [7] is Pseudomonas aeruginosa. The experiment in a line: Antibacterial activity against Pseudomonas aeruginosa assessed as diameter of inhibition zone at 1 mg/ml incubated for 24 hrs by agar well diffusion assay. The data set is classed as functional. Particulars: for zone of inhibition at 1000 µg/mL: read-out: DIZ.
The test system of data set [8] is Salmonella typhi. As to the kind of experiment: Antibacterial activity against Salmonella typhi assessed as diameter of inhibition zone at 1 mg/ml incubated for 24 hrs by agar well diffusion assay. The note with it: for zone of inhibition at 1000 µg/mL: Salmonella enterica, read-out: DIZ; for diameter of the inhibition zone (DIZ): Salmonella enterica subsp. enterica serovar Typhi. It is filed as functional, Salmonella enterica subsp. enterica serovar Typhi.

In data set [9] the test system is Aspergillus niger. The experiment in a line: Antifungal activity against Aspergillus niger assessed as diameter of inhibition zone at 1 mg/ml incubated for 24 hrs by agar well diffusion assay. The note with it: for zone of inhibition at 1000 µg/mL: read-out: DIZ. It is filed as functional.
Data set [10] has as its system Staphylococcus aureus. The experiment in a line: Antibacterial activity against Staphylococcus aureus assessed as diameter of inhibition zone at 1 mg/ml incubated for 24 hrs by agar well diffusion assay. It is filed as functional.
Data set [11] relates to Escherichia coli. As to the kind of experiment: Antibacterial activity against Escherichia coli assessed as diameter of inhibition zone at 1 mg/ml incubated for 24 hrs by agar well diffusion assay. The data set is classed as functional. Particulars: for zone of inhibition at 1000 µg/mL: read-out: DIZ.
Data set [12] deals with Shigella boydii. The experiment in a line: Antibacterial activity against Shigella boydii assessed as diameter of inhibition zone at 1 mg/ml incubated for 24 hrs by agar well diffusion assay. It is filed as functional.
Data set [13] has as its system Bacillus cereus. As to the kind of experiment: Antibacterial activity against Bacillus cereus assessed as diameter of inhibition zone at 1 mg/ml incubated for 24 hrs by agar well diffusion assay. It is filed as functional.

Each structure is given as a SMILES string. Calls of active or inactive are those of the source. No cut-off for these calls is given here.

Usually MIC stands for the least concentration at which growth counts as inhibited. For the compound `O=C(O)c1cn(C2CC2)c2cc(N3CCNCC3)c(F)cc2c1=O` [CIPROFLOXACIN], the MIC in data set [1] was 1.56 µg/mL.

Turning to `CO[C@H]1/C=C/O[C@@]2(C)Oc3c(C)c(O)c4c(O)c(c(/C=N/N5CCN(C)CC5)c(O)c4c3C2=O)NC(=O)/C(C)=C\C=C\[C@H](C)[C@H](O)[C@@H](C)[C@@H](O)[C@@H](C)[C@H](OC(C)=O)[C@@H]1C` [RIFAMPIN], the MIC in data set [1] was 0.2 µg/mL.

Turning to `O=C(N/N=C/c1cc([N+](=O)[O-])ccc1OCc1cn(-c2ccc(Br)cc2)nn1)c1ccncc1`, the “diameter of the inhibition zone (DIZ)” value in data set [2], in data set [3], in [7], in [9], in data set [10] and in data set [11] was “inactive” in each case. For the same compound, the “diameter of the inhibition zone (DIZ)” value in data set [12] and in data set [13] was “inactive” throughout. In addition, the zone of inhibition at 1000 µg/mL in data set [4] was 12 mm; in data set [6] it was 12 mm; in data set [8] it was 10 mm. Also, in data set [5], the cytotoxicity at 48 h, 25 ug/ml worked out at 19%. In addition, the MIC in [1] turned out to be 12.5 µg/mL.

`COc1cccc(-n2cc(COc3ccc([N+](=O)[O-])cc3/C=N/NC(=O)c3ccncc3)nn2)c1`: the zone of inhibition at 1000 µg/mL is 8 mm in data set [2] (read-out: DIZ); 12 mm in data set [3]; 6 mm in data set [6]; 10 mm in [7]; 12 mm in data set [8]; 13 mm in data set [9]. In data set [11], the zone of inhibition at 1000 µg/mL is 9 mm. Besides, the “diameter of the inhibition zone (DIZ)” value in data set [4], in data set [10], in [12] and in data set [13] was “inactive” throughout. For the same compound, the cytotoxicity at 48 h, 25 ug/ml in data set [5] stood at 23.9%. In data set [1], the MIC stood at 0.78 µg/mL.

For the compound `Cc1ccc([N+](=O)[O-])cc1-n1cc(COc2ccc([N+](=O)[O-])cc2/C=N/NC(=O)c2ccncc2)nn1`, the “diameter of the inhibition zone (DIZ)” value in [2], in data set [3], in data set [4], in data set [6], in data set [8] and in data set [10] was “inactive” in each case. Further, the “diameter of the inhibition zone (DIZ)” value in [12] and in [13] was “inactive” throughout. Further, the cytotoxicity at 48 h, 25 ug/ml in [5] turned out to be 23.9%. Further, the minimum inhibitory concentration (MIC) in [1] turned out to be 0.78 µg/mL. Besides, the zone of inhibition at 1000 µg/mL worked out at 9 mm in data set [7], 13 mm in data set [9] and 12 mm in data set [11].

Consider `O=C(N/N=C/c1cc([N+](=O)[O-])ccc1OCc1cn(-c2cccc([N+](=O)[O-])c2)nn1)c1ccncc1`, for which the “diameter of the inhibition zone (DIZ)” value in data set [2], in data set [3], in data set [4], in data set [6], in [7] and in data set [8] was “inactive” each time. Further, the “diameter of the inhibition zone (DIZ)” value in data set [9], in data set [10], in [11], in data set [12] and in data set [13] was “inactive” in each case. In addition, in data set [5], the cytotoxicity at 48 h, 25 ug/ml was found to be 22.7%. For the same compound, the MIC in data set [1] is 0.78 µg/mL.

Take `CCc1ccc(-n2cc(COc3ccc([N+](=O)[O-])cc3/C=N/NC(=O)c3ccncc3)nn2)cc1`: the “diameter of the inhibition zone (DIZ)” value in [2], in data set [3], in [4], in data set [6], in [8] and in [10] was “inactive” each time. Besides, the “diameter of the inhibition zone (DIZ)” value in [12] and in data set [13] was “inactive” throughout. Also, the cytotoxicity at 48 h, 25 ug/ml in [5] was 26.9%. For the same compound, the MIC in data set [1] worked out at 0.78 µg/mL. For the same compound, the zone of inhibition at 1000 µg/mL in data set [7], in data set [9] and in [11] was 10 mm in each case.

For `Cc1cccc(-n2cc(COc3ccc([N+](=O)[O-])cc3/C=N/NC(=O)c3ccncc3)nn2)c1`, the “diameter of the inhibition zone (DIZ)” value in [2], in data set [4], in data set [11] and in data set [12] was “inactive” throughout. The zone of inhibition at 1000 µg/mL in data set [3] is 10 mm; in [6], 8 mm; in [7], 12 mm; in data set [8], 10 mm; in [9] it was 8 mm; in [10] (read-out: DIZ), 13 mm. Moreover, the zone of inhibition at 1000 µg/mL in data set [13] (read-out: DIZ) came out at 13 mm. Further, the cytotoxicity at 48 h, 25 ug/ml in data set [5] is 23.2%. Further, the MIC in data set [1] is 12.5 µg/mL.

Turning to `O=C(N/N=C/c1cc([N+](=O)[O-])ccc1OCc1cn(-c2ccc(Cl)cc2)nn1)c1ccncc1`, the “diameter of the inhibition zone (DIZ)” value in [2], in [3], in data set [6], in [10], in [11] and in data set [12] was “inactive” in each case. In addition, the “diameter of the inhibition zone (DIZ)” value in data set [13] is “inactive”. In addition, the zone of inhibition at 1000 µg/mL in data set [4] was determined as 10 mm; in [7], 15 mm; in data set [8] it was 13 mm; in data set [9] it was 16 mm. The MIC in [1] was 25 µg/mL.

With `Cc1ccc(-n2cc(COc3ccc([N+](=O)[O-])cc3/C=N/NC(=O)c3ccncc3)nn2)c(C)c1`, the “diameter of the inhibition zone (DIZ)” value in data set [2], in [3], in [4], in data set [6], in [7] and in data set [9] was “inactive” throughout. For the same compound, the “diameter of the inhibition zone (DIZ)” value in [10], in data set [11], in data set [12] and in data set [13] was “inactive” in each case. In data set [5], the cytotoxicity at 48 h, 25 ug/ml amounted to 17.6%. The MIC in data set [1] was found to be 3.12 µg/mL. The zone of inhibition at 1000 µg/mL in data set [8] came out at 11 mm.

Consider `Cc1cc(C)c(-n2cc(COc3ccc([N+](=O)[O-])cc3/C=N/NC(=O)c3ccncc3)nn2)c(C)c1`, for which the “diameter of the inhibition zone (DIZ)” value in data set [2], in data set [3], in [4], in data set [6], in [7] and in [9] was “inactive” throughout. Moreover, the “diameter of the inhibition zone (DIZ)” value in data set [10], in data set [11], in data set [12] and in data set [13] was “inactive” each time. For the same compound, the cytotoxicity at 48 h, 25 ug/ml in [5] stood at 27.7%. For the same compound, the MIC in data set [1] worked out at 0.78 µg/mL. Also, in data set [8], the zone of inhibition at 1000 µg/mL was 10 mm.

`O=C(N/N=C/c1cc([N+](=O)[O-])ccc1OCc1cn(-c2ccccc2F)nn1)c1ccncc1`: the “diameter of the inhibition zone (DIZ)” value in data set [2], in data set [4], in [9], in [10], in data set [11] and in data set [12] was “inactive” in each case. The “diameter of the inhibition zone (DIZ)” value in data set [13] was “inactive”. Also, the zone of inhibition at 1000 µg/mL in data set [3] is 11 mm; in data set [6], 10 mm; in [7] it was 13 mm; in data set [8] it was 10 mm. The cytotoxicity at 48 h, 25 ug/ml in data set [5] was found to be 19.3%. In addition, the MIC in data set [1] was determined as 12.5 µg/mL.

In the case of `OC(Cn1cncn1)(Cn1cncn1)c1ccc(F)cc1F` [FLUCONAZOLE], the zone of inhibition at 1000 µg/mL in data set [4] and in data set [9] was 30 mm each time.

Regarding `NNC(=O)c1ccncc1` [ISONIAZID], the MIC in data set [1] was determined as 0.1 µg/mL.

Consider `CC[C@@H](CO)NCCN[C@@H](CC)CO` [ETHAMBUTOL], for which the minimum inhibitory concentration (MIC) in data set [1] stood at 3.12 µg/mL.
